What all share (test): FRET melting
For test [1], the system named is FGD (DNA, G4) GGGTGTGGGTGTGGGTGTGGG
To be noted: 5 mM K+, 95 mM Li+; 10 mM lithium cacodylate pH 7.2; 0.2 µM DNA, 1 µM porphyrin.

Test [2] relates to F21D (DNA, G4) GGGTTAGGGTTAGGGTTAGGG
The settings on record: 5 mM K+, 95 mM Li+; 10 mM lithium cacodylate pH 7.2; 0.2 µM DNA, 1 µM porphyrin.

For test [3] the test system is unchanged. The settings on record: 5 mM K+, 95 mM Li+; 10 mM Li cacodylate pH 7.2; 0.2 µM DNA, 1 µM NMM.
Test [4] deals with FGD (DNA, G4) GGGTGTGGGTGTGGGTGTGGG
The settings on record: 5 mM K+, 95 mM Li+; 10 mM Li cacodylate pH 7.2; 0.2 µM DNA, 1 µM NMM.

With `C=CC1=C(C)c2cc3[nH]c(cc4nc(cc5[nH]c(cc1n2)c(C)c5CCC(=O)O)C(CCC(=O)O)=C4C)c(C)c3C=C`, the ΔT1/2 in test [1] and in test [2] was 0.2 ± 0.3 °C each time.
For `C=Cc1c(C)c2cc3c(C=C)c(C)c(cc4nc(cc5nc(cc1[nH]2)C(C)=C5CCC(=O)O)C(CCC(=O)O)=C4C)n3C`, the ΔT1/2 in test [1] came to 9.8 ± 0.3 °C; in test [2], 8.5 ± 0.6 °C.
Take `CCC1=C(C)c2cc3[nH]c(cc4nc(cc5[nH]c(cc1n2)c(C)c5CC)C(C)=C4CCC(=O)O)c(CCC(=O)O)c3C`: the ΔT1/2 in test [1] worked out at 0.8 ± 0.3 °C; in test [2], 0.2 ± 0.3 °C.
For the compound `CCc1c(C)c2cc3nc(cc4nc(cc5c(CC)c(C)c(cc1[nH]2)n5C)C(C)=C4CCC(=O)O)C(CCC(=O)O)=C3C`, the ΔT1/2 in test [3] was 14 ± 2 °C; in test [4], 12.5 ± 0.3 °C.
With `C[n+]1ccc(-c2c3nc(c(-c4cc[n+](C)cc4)c4ccc([n-]4)c(-c4cc[n+](C)cc4)c4nc(c(-c5cc[n+](C)cc5)c5ccc2[n-]5)C=C4)C=C3)cc1.[Zn+2]`, the ΔT1/2 worked out at 22.1 ± 0.9 °C in test [1] and 23 ± 1 °C in test [2].
In the same order, the values of `C[n+]1ccc(-c2c3nc(c(-c4cc[n+](C)cc4)c4ccc([nH]4)c(-c4cc[n+](C)cc4)c4nc(c(-c5cc[n+](C)cc5)c5ccc2[nH]5)C=C4)C=C3)cc1` are 31 ± 2 °C and 34 ± 2 °C.
